# Test results: patent US8853274B1, “Compositions and methods for targeting glioblastomas cells” (Vanderbilt University, priority 2011, dated 2014)
# Experiments:
# Type in all cases: cell-based, human
# [1] = tested on: T4302 CD133+ cells; assay: Caspase 3/7 activation (apoptosis); settings: 100 nM, day 3
# Experimental: (A) T4302 CD133+ GBM stem cells were enriched from freshly collected subcutaneous xenograft tumors, cultured in stem cell media. Cells were left unirradiated or irradiated at 3 Gy. The relative mRNA levels of Hes2 were determined by quantitative real-time PCR at the time points as indicated. (B) T4302 CD133+ cells were pre-treated with vehicle (DMSO), 2 μM DAPT or 0.5 μM L685,458 for 4 hours and irradiated as indicated. Cells were then plated to form neurospheres. Fourteen days after plating, neurospheres containing more than 50 cells were scored. To determine the surviving fractions, the number of neurosphere at each radiation dose was normalized to that of the corresponding sham-irradiated group. (C) T4302 CD133+ cells were treated with GSIs±radiation as indicated. Relative caspase 3/7 activities were determined by normalizing caspase activities to the corresponding cell numbers. (D), (E) T4302 CD133+ cells were infected with lentivirus directing expression of non-targeting shRNA or shRNAs specific to Notch1 or Notch2 (KD-Notch1 or KD-Notch2), and selected with puromycin. Relative caspase 3/7 activities and clonogenic survival were determined as described above. (F) T4302 CD133+ cells were infected with control lentivirus or lentivirus directing expression of NICD2. Clonogenic survival was determined as described above. *: p<0.05 by Student's t-test; #: p<0.01 by one-way ANOVA.
# (§1) (A, B) T4302 CD133+ cells were treated with 100 nM RO4929097 (GSI) and/or 100 nM tipifarnib (FTI) for 4 hours prior to 3 Gy radiation. (A) Cell growth on day 5 and (B) caspase 3/7 activation on day 3 were determined as described in FIG. 4. #: p<0.001 by one-way ANOVA, combo vs. single agents. (C) The effects of GSIs and FTI against growth of T4302 CD133− cells were determined as described in panel A. (D, E) T4302 CD133+ cells were treated with GSI, FTI, or a 1:1 mixture at different concentrations (ranging from 3000 nM to ˜0.5 nM, 1:3 dilution)±3 Gy radiation. Cell viability was determined at 5 days after treatment in comparison to vehicle-treated groups. […] (F) T4302 CD 133+ cells were treated by GSI±FTI with a 2-fold dilution. Neurospheres were countered on day 10, and normalized to the vehicle-treated group.
# [2] = tested on: T4302 CD133− cells; assay: Growth / survival of non-stem GBM cells; settings: day 5
# Experimental: as §1
# Tumor cells are enzymatically dissociated from freshly collected subcutaneous xenograft tumors and cultured overnight before sorting. The CD133− and CD133+ fractions are separated either by magnetic sorting using the CD133 Microbead kit (Miltenyi Biotech), or labeled with APC-conjugated CD133 antibody (Miltenyi Biotech) and sorted by flow cytometry. CD133+ cells are maintained in neurobasal media supplemented with 2% B-27, 20 ng/ml EGF, and 20 ng/ml bFGF. […]
# [3] = tested on: Akt; assay: Immunoblot of Akt phosphorylation in T4302 CD133+ cells; settings: 200 nM, ±radiation, 2 days
# Experimental: (A) T4302 CD133+ cells were treated with 200 nM RO4929097 (GSI), and irradiated 4 hours later. Cells were cultured for two days and lysed for immunoblotting. (B) T4302 CD133+ cells were treated with 200 nM GSI or FTI±radiation. Cells were lysed 2 days after treatment. (C) T4302 CD133+ cells were treated with 200 nM GSI±FTI for 24 hours, and left under normoxia or in 2% O2 for 16 hours before being lysed for immunoblotting.
# [4] = tested on: T4302 CD133+ cells expressing RhoB shRNA; assay: Growth, caspase and Akt phosphorylation in RhoB shRNA cells; settings: 100 nM
# Experimental: (A) T4302 CD133+ cells were infected with lentivirus directing expression of a non-targeting shRNA or two RhoB specific shRNA. Cells were lysed for immunoblotting 3 days after infection. (B, C) Two days after infection, cells were selected with puromycin for two days, and plated in 96-well plates for growth curve assays. Cell growth was measured on days 1, 3 and 5 after plating, and normalized to the corresponding readout on day 1. (D-F) After lentiviral infection and puromycin selection as described above, T4302 CD133+ cells were treated with 100 nM GSI, FTI, ±3 Gy radiation and plated for subsequent experiments. (D) Relative growth on day 5, (E) caspase activation on day 3, and (F) protein levels on day 1 after treatment were determined as described in FIG. 4. *: p<0.001 by Student's t-test in comparison to the corresponding control groups.
compound,measurement,setting,value
CC(C)(C(=O)NCC(F)(F)C(F)(F)F)C(=O)N[C@@H]1C(=O)Nc2ccccc2-c2ccccc21 [RO4929097],"caspase 3/7 activation, in words",[1]; absence of radiation,without apparent activation of apoptosis
same,increase of caspase 3/7 activity compared with the sham-treated group,[1]; following 3-Gy radiation,approximately 2 fold
same,effect on growth of CD133− non-stem GBM cells,[2],largely insensitive
same,Akt activity (phosphorylation at serine 473 and threonine 308),[3],stronger Akt inhibition in irradiated cells than in unirradiated cells
same,Akt phosphorylation in RhoB knockdown cells compared with control cells,[4]; day 1,greater reduction of Akt phosphorylation
same,"sensitivity of RhoB shRNA cells (growth day 5, caspase day 3)",[4]; ±3 Gy,highly sensitive
